Like-named read-outs stand apart in the source and are kept apart here.
System: Hyperlipidemic Hamster
Assay: In Vivo Assay of Hypolipidemic Agents Using the Hyperlipidemic Hamster
Conditions: 7 days, percent change versus control, negative = lowering; for change in vivo at 3 mg/kg / change in vivo at 10 mg/kg / change in vivo at 40 mg/kg / change in vivo at 50 mg/kg: Mesocricetus auratus, po, 168 h; for change in vivo at 3 mg/kg: 3 mg/kg once daily oral; for change in vivo at 10 mg/kg: 10 mg/kg once daily oral; for change in vivo at 40 mg/kg: 40 mg/kg once daily oral
Method in brief: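 Hamsters, six per group, were fed chow with 0.5% cholesterol for seven days and given compound once daily by oral gavage in corn oil; controls received corn oil alone. Plasma (EDTA) and liver lipids were measured at sacrifice. Values are percent change versus control, so negative means lowering.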

[1] = read-out: % Reduction (in vivo) Cholest. Esters
[2] = read-out: % Reduction (in vivo) Serum Cholest.
[3] = 50 mg/kg once daily oral, read-out: % Reduction (in vivo) Cholest. Esters
[4] = 50 mg/kg once daily oral, read-out: % Reduction (in vivo) Serum Cholest.

Row | Structure (SMILES) | change in vivo at 50 mg/kg [3] | change in vivo at 50 mg/kg [4] | also measured
1 | COc1ccc([C@@H]2[C@@H](CCCc3ccccc3)C(=O)N2c2ccccc2)cc1 (relative stereo) [Example 7] |  |  | change in vivo at 3 mg/kg [1]: -50%; change in vivo at 3 mg/kg [2]: -30%; change in vivo at 10 mg/kg [1]: -89.5%; change in vivo at 10 mg/kg [2]: -41%; change in vivo at 40 mg/kg [1]: -95%; change in vivo at 40 mg/kg [2]: -49%
2 | COc1ccc([C@@H]2[C@@H](CCCc3ccc(N)cc3)C(=O)N2c2ccc(OC)cc2)cc1 (relative stereo) [Example 8E] | -32% | 0% | 
3 | COc1ccc([C@@H]2[C@H](N)C(=O)N2c2ccccc2)cc1 (relative stereo) [Example 11] | 0% | -8% | 
4 | CCC(=O)N[C@@H]1C(=O)N(c2ccccc2)[C@@H]1c1ccc(OC)cc1 (relative stereo) [Example 12A] | -39% | -14% | 
5 | COc1ccc([C@@H]2[C@H](NC(=O)COc3ccccc3)C(=O)N2c2ccccc2)cc1 (relative stereo) [Example 12B] | -26% | 0% | 
6 | COc1ccc([C@@H]2[C@H](NC(=O)OCc3ccccc3)C(=O)N2c2ccccc2)cc1 (relative stereo) [Example 12C] | 0% | 0% | 
7 | COc1ccc([C@@H]2[C@H](NC(=O)N(C)c3ccccc3)C(=O)N2c2ccccc2)cc1 (relative stereo) [Example 12D] | 0% | 0% | 
8 | COc1ccc([C@@H]2[C@H](NC(=O)Cc3ccccc3)C(=O)N2c2ccccc2)cc1 (relative stereo) [Example 12] | 0% | -12% | 
9 | COc1ccc([C@@H]2[C@H](NS(=O)(=O)c3ccc(C)cc3)C(=O)N2c2ccccc2)cc1 (relative stereo) [Example 13] | 0% | -18% | 
10 | COc1ccc(CN[C@@H]2C(=O)N(c3ccccc3)[C@@H]2c2ccc(OC)cc2)cc1 (relative stereo) [Example 14A] | -78% | 31% | 
11 | COc1ccc([C@@H]2[C@H](NCC(c3ccccc3)c3ccccc3)C(=O)N2c2ccccc2)cc1 (relative stereo) [Example 14B] | 0% | 0% | 
12 | COc1ccc([C@@H]2[C@H](NCCCC3CCCCC3)C(=O)N2c2ccccc2)cc1 (relative stereo) [Example 14C] | 0% | 0% | 
13 | COc1ccc([C@@H]2[C@H](NCCc3ccccc3)C(=O)N2c2ccccc2)cc1 (relative stereo) [Example 14] | -87% | 30% | 
14 | COc1ccc([C@@H]2[C@@H](CCCc3ccccc3)C(=O)N2c2ccc(S(C)(=O)=O)cc2)cc1 (relative stereo) [Example 17B] | -39% | 0% | 
15 | COc1ccc(N2C(=O)[C@@H](CCCc3ccccc3)[C@H]2c2ncc[nH]2)cc1 (relative stereo) [Example 18] | 0% | 0% | 
16 | COc1ccc(N2C(=O)[C@H](CCCc3ccccc3)[C@H]2c2ccc(CN3CCN(C)CC3)cc2)cc1 (relative stereo) [Example 19C] | -46% | -9% | 
17 | COc1ccc(NC[C@H]2[C@@H](CCCc3ccccc3)C(=O)N2c2ccc(OC)cc2)cc1 (relative stereo) [Example 19D] | -18% | -15% | 
18 | COc1ccc(N2C(=O)[C@H](CCCc3ccccc3)[C@@H]2CN2CCOCC2)cc1 (relative stereo) [Example 19E] | -30% | -19% | 
19 | COc1ccc(N2C(=O)[C@H](CCCc3ccccc3)[C@H]2c2cc[n+]([O-])cc2)cc1 (relative stereo) [Example 20] | 0% | 12% | 
20 | COCc1ccc([C@H]2[C@@H](CCCc3ccccc3)C(=O)N2c2ccc(OC)cc2)cc1 (relative stereo) [Example 21A] | -25% | 0% | 
21 | COCc1ccc([C@@H]2[C@@H](CCCc3ccccc3)C(=O)N2c2ccc(OC)cc2)cc1 (relative stereo) [Example 21] | -56% | -27% | 

Row | Structure (SMILES) | change in vivo at 50 mg/kg [3] | change in vivo at 50 mg/kg [4] | also measured
22 | COc1ccc(N2C(=O)[C@H](CCCc3ccccc3)[C@@H]2c2ccc(C(=O)O)cc2)cc1 (relative stereo) [Example 22A] | -22% | -16% | 
23 | COc1ccc(N2C(=O)[C@@H](CCCc3ccccc3)[C@@H]2c2ccc(C(=O)O)cc2)cc1 (relative stereo) [Example 22] | -33% | -17% | 
24 | COc1ccc(N2C(=O)[C@H](CCCc3ccccc3)[C@@H]2c2ccc(C(=O)N3CCOCC3)cc2)cc1 (relative stereo) [Example 23] | -40% | -22% | 
25 | CCOC(=O)c1ccc([C@@H]2[C@@H](CCCc3ccccc3)C(=O)N2c2ccc(OC)cc2)cc1 (relative stereo) [Example 24A] | -76% | -21% | 
26 | CCOC(=O)c1ccc([C@H]2[C@@H](CCCc3ccccc3)C(=O)N2c2ccc(OC)cc2)cc1 (relative stereo) [Example 24] | 0% | -17% | 
27 | COc1ccc(N2C(=O)[C@H](CCCc3ccccc3)[C@H]2c2ccc(N(S(C)(=O)=O)S(C)(=O)=O)cc2)cc1 (relative stereo) [Example 25A] | 0% | -13% | 
28 | COc1ccc(N2C(=O)[C@H](CCCc3ccccc3)[C@@H]2c2ccc(N(S(C)(=O)=O)S(C)(=O)=O)cc2)cc1 (relative stereo) [Example 25B] | 0% | 0% | 
29 | COc1ccc(N2C(=O)[C@@H](CCCc3ccccc3)[C@@H]2c2ccc(NS(C)(=O)=O)cc2)cc1 (relative stereo) [Example 25C] | -46% | -8% | 
30 | COc1ccc(N2C(=O)[C@H](CCCc3ccccc3)[C@@H]2c2ccc(NS(C)(=O)=O)cc2)cc1 (relative stereo) [Example 25] | -34% | -8% | 
31 | COc1ccc(N2C(=O)[C@H](CCCc3ccccc3)[C@H]2c2ccc(NC(C)=O)cc2)cc1 (relative stereo) [Example 26] | -26% | -4% | 
32 | CON=Cc1ccc([C@H]2[C@H](CCCc3ccccc3)C(=O)N2c2ccc(OC)cc2)cc1 (relative stereo) [Example 27A] | -42% | -15% | 
33 | CON=Cc1ccc([C@H]2[C@@H](CCCc3ccccc3)C(=O)N2c2ccc(OC)cc2)cc1 (relative stereo) [Example 27] | -36% | -12% | 
34 | COc1ccc(N2C(=O)[C@H](CCCc3ccccc3)[C@@H]2c2ccc(S)cc2)cc1 (relative stereo) [Example 28] | 0% | -19% | 
35 | COc1ccc(N2C(=O)[C@H](CCCc3ccccc3)[C@@H]2c2ccc(S(N)(=O)=O)cc2)cc1 (relative stereo) [Example 29] | -24% | -22% | 
36 | COc1ccc(N2C(=O)[C@H](CCCc3ccccc3)[C@@H]2c2ccc(C3OCCO3)cc2)cc1 (relative stereo) [Example 31] | -52% | -19% | 
37 | COc1ccc(N2C(=O)[C@H](CCCc3ccccc3)[C@H]2c2cc(I)c(O)c(I)c2)cc1 (relative stereo) [Example 32A] | 0% | 0% | 
38 | COc1ccc(N2C(=O)[C@H](CCCc3ccccc3)[C@H]2c2ccc(O)c(I)c2)cc1 (relative stereo) [Example 32] | 0% | 0% | 
39 | COc1ccc([C@@H]2[C@@H](CCCc3ccc(N=[N+]=[N-])cc3)C(=O)N2c2ccc(OC)cc2)cc1 (relative stereo) [Example 33] | 0% | 0% | 
40 | CCOC(=O)COc1ccc([C@H]2[C@@H](CCCc3ccccc3)C(=O)N2c2ccc(OC)cc2)cc1 (relative stereo) [Example 35A] | -84% | -34% | 
41 | COc1ccc([C@@H]2[C@@H]([C@H]3C[C@H]3Cc3ccccc3)C(=O)N2c2ccc(OC)cc2)cc1 (relative stereo) [Example 36] | -94% | -53% | 
42 | COc1ccc(N2C(=O)C(CCCc3ccccc3)C2c2ccc(C3OCCO3)cc2)cc1 (stereo not shown) [Example 1AX] |  |  | % Reduction (in vivo) Cholest. Esters (50 mg/kg once daily oral): -52%; % Reduction (in vivo) Serum Cholest. (50 mg/kg once daily oral): -16%

Source: US5688787A, “Substituted β-lactam compounds useful as hypochlesterolemic agents and processes for the preparation thereof” (priority 1996, dated 1997)
